pEC50: −log10 of the molar value. Where two headings read alike, the source gives them in different places.
Legend:
right ventricular strips = test: Cardiac stimulant activity in vitro, guinea pig ventricular strips (force of contraction); settings: Cavia porcellus, 50% increase in force of contraction; guinea pig ventricular strips; read-out: EC50 × 10^-6 M
Method: The compounds of formula (I) and their pharmaceutically acceptable salts are tested for cardiac stimulant activity following a procedure based on that of S. C. Verma and J. H. McNeill (J.Pharm & Exp. Therapeutics, 200, 352-362 (1977)). Guinea pigs (500-700 g) of either sex are sacrificed and the hearts are quickly removed and transferred to a dissecting dish containing oxygenated bathing fluid. While in the bathing medium, the right ventricle is cut into two strips. The strips are each suspended in a 50 ml bath containing Krebs Henseleit solution at 37° C., and the bath is bubbled with 95% oxygen and 5% carbon dioxide. The ventricular strips are electrically stimulated at a frequency of 1.0 Hz, at double the threshold voltage. A resting tension of 1.0 g is applied to the strips and the tension is kept constant by readjustment during an equilibration period of 60 minutes. The bathing fluid is frequently changed during this period. When a steady base line is obtained, a compound under test is added to the bathing fluid and a cumulative concentration response curve is plotted. The compounds for use in the present invention which were tested gave a 50% increase in the force of contraction of the ventricular strips at concentrations in the bathing fluid of less than 10^-4 molar, thus showing that they have activity as positive inotropic agents.

[1] = system: left ventricular dp/dt max; test: Cardiac stimulant activity in vivo, anaesthetised cats (left ventricular dp/dt max); set-up: species or system cat; key to Relative Duration: ***: long; **: medium; *: short
Excerpt: The dose to increase left ventricular dp/dt max by 50% is given as the ED50.

[2] = system: left ventricular dp/dt max; test: Cardiac stimulant activity in vivo, conscious dogs (left ventricular dp/dt max); set-up: species or system dog; settings: for minimal effective dose: Canis lupus familiaris
Method: Oral administration caused positive inotropic responses at doses of 0.25 mg/kg and below. […] Therefore this compound is particularly beneficial with regard to `force-rate` selectivity.

hindquarters blood flow = test: Vasodilator activity, anaesthetised rat hindquarters autoperfused at constant blood pressure; type: in vivo
Excerpt: The dose to increase hindquarters blood flow by 50% was 4.6 μmol/Kg.

[3] = system: 2-pyridylethylamine-induced bronchoconstriction; test: Bronchodilatation in vivo, 2-pyridylethylamine-induced bronchoconstriction; set-up: species or system guinea-pigs (Dunkin Hartley); settings: i.v. bolus one minute before challenge
Method: Male guinea-pigs of the Dunkin Hartley strain (530 g±6 g) were anaesthetised with Sagatal (pentobarbital sodium) (90 mg/kg i.p.). Airway resistance was measured using a modification of the classical Konzett-Rossler technique (Versuchsanordnung zu Untersuchungen an der Bronchialmuskulatur. Naunyn-Schmiedebergs Arch. Exp. Path. Pharmak., 30: pp 121-145, (1940)). A dose of 2-pyridylethylamine which gave approximately 100% increase in airway resistance was selected for i.v. administration. Bolus doses of the compound of Example 1 were administered (i.v.) one minute before the 2-pyridylethylamine challenge.

platelets = test: Platelet aggregation inhibition in vitro (platelet rich plasma); type: cell-based, normal healthy volunteers (human)
Method: Plasma was prepared as follows. Blood from 6 normal healthy volunteers was mixed with 3.8% w/v trisodium citrate (9 parts blood: 1 part citrate). The samples were centrifuged at 150 g for 10 minutes and the supernatant platelet rich plasma (PRP) was removed. The platelet concentration in the PRP was adjusted to 300±50×10^9 /1 platelets with autologous platelet poor plasma.
25 μl aliquots of a 40 μg/ml solution of the compound of Example 1 were incubated with 225 μl aliquots of PRP in a Payton Aggregometer for 3 minutes. Control solutions, one matched to the test solution with respect to solution pH and tonicity, and another of 0.9% w/v NaCl were also studied. After 3 minutes 25 μl aliquots of adenosine diphosphate solution at a concentration of 20 μm were added to each solution. The aggregation response was recorded until complete with a maximum of 3 minutes. The procedure was repeated using as different aggregation agents: 100 μg collagen; 100 μm adrenaline or 5 mg/ml arachidonic acid instead of adenosine diphosphate.
The aggregation responses induced by the different aggregation agents were measured for the platelets from each donor. The results were assessed by visual examination of the aggregation tracing produced by the Payton aggregometer and semi-quantitatively assessed by measurement of the light transmission 3 minutes after adding the inducing agent.
Serial dilutions of this compound were prepared and tested for inhibition of adenosine diphosphate induced aggregation.

[4] = i.v., anaesthetised rat hindquarters

`CNC(=NC#N)Nc1ccc(C2=NNC(=O)CC2C)cc1` (stereo not drawn) [Example 1, 6-[4-(N^3 -Methyl-N^2-cyanoguanidino)phenyl]-5-methyl-4,5-dihydro-3(2H)-pyridazinone] was tested, and the pEC50 (right ventricular strips) was 5.85, the ED50 ([1]; Felis catus, intravenous, dose to increase left ventricular dp/dt max by 50%, anaesthetised cats) was 0.2 µmol/kg and the “Relative Duration” value ([1]; estimated in anaesthetised cats following i.v. administration) was “***”. For the same molecule, the “changes in blood pressure or heart rate” value [2] was “without changes in blood pressure or heart rate”, the minimal effective dose ([2]; intravenous, read-out: dose increasing left ventricular dp/dt max) was under 0.1 mg/kg and the minimal effective dose ([2]; oral, read-out: dose causing positive inotropic responses) was at most 0.25 mg/kg. For the same molecule, the “persistence of positive inotropic responses” value ([2]; persisted for up to) was 9 to 12 h, the ED (50% increase in hindquarters blood flow) (hindquarters blood flow; Rattus norvegicus, iv, anaesthetised rat, read-out: dose to increase hindquarters blood flow by 50%) was 4.6 µmol/kg and the “dose range of dose-dependent vasodilatation” value (hindquarters blood flow; [4]) was 1 to 10 µmol/kg. The duration of activity (hindquarters blood flow; [4]) was “significant duration of activity”, the ED50 ([3]; Cavia porcellus, iv, read-out: ED50, dose which reduced the 2-pyridylethylamine bronchoconstriction by 50%) was 0.39 µmol/kg and the minimal effective dose ([3]; Cavia porcellus, read-out: threshold dose) was 0.0316 µmol/kg. For the same molecule, the “effect on 2-pyridylethylamine-induced bronchoconstriction” value [3] was “reduced the 2-pyridylethylamine-induced bronchoconstriction”, the IC100 (platelets; Homo sapiens, Platelet, adenosine diphosphate induced aggregation, serial dilutions, read-out: concentration completely inhibiting second wave aggregation) was at least 0.5 µg/mL and the “inhibition of platelet aggregation induced by adenosine diphosphate” value (platelets; final concentrations of 5 μg/ml, adenosine diphosphate) was “inhibited platelet aggregation”. The “inhibition of platelet aggregation induced by adrenaline” value (platelets; final concentrations of 5 μg/ml, adrenaline) was “inhibited platelet aggregation”, the “inhibition of platelet aggregation induced by arachidonic acid” value (platelets; final concentrations of 5 μg/ml, arachidonic acid) was “inhibited platelet aggregation” and the “inhibition of platelet aggregation induced by collagen” value (platelets; final concentrations of 5 μg/ml, collagen) was “inhibited platelet aggregation”.

Source: patent US4654342A, “6-(cyanoguanidinophenyl)pyridazinones as cardiac stimulants” (Smith Kline & French Laboratories Ltd., priority 1984, dated 1987)
